The values that follow come from US7060428B2, “Methods and compositions useful for the prediction of blood-brain barrier permeation” (Wyeth, priority 2001, dated 2006).

By Papp is commonly meant a coefficient for how fast a substance crosses the barrier. Low values mean slow passage, high ones fast passage.

This series in a line: Parallel artificial membrane permeability assay (PAMPA) for blood-brain barrier permeation, PSR4p analyzer. As to conditions: for Pe (linear velocity of permeation): pH 7.4 buffer, 18 h, ambient temperature, literature compounds, averaged; for Papp at 18 h, 25 µg/mL: pig, PAMPA, pH 7.4. The text has this: In actual practice, a solution of known concentration of a compound or mixture of compounds in a buffer solution is separated from a buffer solution containing 0% concentration of said compound or mixture of compounds by a porous filter membrane impregnated with a mixture of brain polar lipid extract and dodecane in such a way that the surface of each buffer solution is in contact with opposite sides of said impregnated membrane. After a measured period of time, the concentration of said compound or mixture of compounds is determined for each buffer solution and the rate of diffusion is calculated.
In one embodiment of the invention, a 96-well plate filled with solutions of a known concentration of test sample in a buffer solution (donor) may be covered with a 96-well filter plate wherein the porous filter membrane is impregnated with a mixture of brain polar lipid extract and dodecane and the wells are filled with a buffer solution containing 0% concentration of test sample (acceptor) such that the surface of each buffer solution is in contact with opposite sides of said impregnated filter membrane; after a measured period of time, the donor plate and acceptor plate are separated, the concentration of sample in each buffer solution is determined and the rate of permeation is calculated.
In another embodiment of the invention, a high through-put permeability instrument such as the PSR4p instrument manufactured by pION Inc., Woburn, Mass. may be utilized. In this embodiment, a parallel artificial membrane assay (PAMPA) technique is employed using as artificial membrane a porous filter membrane impregnated with a mixture of brain polar lipid extract and dodecane.
A 100 μL volume of each stock solution is placed into one well of a 96-well plate, and the well plate is placed in a PSR4p permeability analyzer manufactured by pION, Inc., Woburn, Mass. A 10 μL volume of stock solution is robotically added to a deep 96-well plate containing 2.0 mL of pH 7.4 buffer solution. The resultant mixture is mechanically stirred to form the donor solution. A 200 μL volume of each donor solution is placed robotically into 3 wells of a 96-well plate to afford the donor plate. A vial containing 20 mg of porcine polar brain lipid extract manufactured by Avanti Polar Lipids, Inc., Alabaster, Ala., dissolved in 1 mL of dodecane is placed in the reservoir of the PSR4p instrument. A 4 μL volume of this brain lipid solution is placed on the filter surface of each well of a 96-well microtiter filter well plate manufactured by Millipore Corp., Bedford, Mass., wherein the filter is a porous (0.45 μm) polyvinylidenefluoride material approximately 104 μm in thickness. The microtiter plate is then manually placed on an orbital shaker for 1 minute to yield a 96-well microtiter plate having a filter membrane permeated with a 2.0% wt/vol solution of porcine polar brain lipid extract in dodecane. A 200 μL volume of pH 7.4 buffer is robotically inserted into the wells of the thus-prepared microtiter 96-well filter plate to give a receptor plate, this receptor plate is placed on the donor plate to form a sandwich and allowed to stand at ambient temperature for 18 h.
A plate washer manufactured by Tecan, Hombrechin-tikon, Switzerland is then used to prepare a UV transparent 96-well plate (UV plate). The receptor plate is removed from the sandwich, a 150 μL volume of the receptor solution is robotically placed in the UV plate, and the UV absorption at 190–500 nm of each receptor well is recorded. The UV plate is then replaced in the plate washer, washed again and a 150 μL volume of the donor solution is robotically placed in the UV plate and the UV absorption at 190–500 nm of each donor well is recorded.
Background: In PAMPA a lipid-coated filter parts donor from acceptor wells.

On to `C[C@]12CCC(=O)C=C1CC[C@@H]1[C@@H]2[C@@H](O)C[C@]2(C=O)[C@@H](C(=O)CO)CC[C@@H]12` [Aldosterone], for which the “Pe (linear velocity of permeation)” value is reported as 1.19 10^−6 cm/s and the apparent permeability (Papp) at 18 h, 25 µg/mL was less than 2 ×10⁻⁶ cm/s.

With `Cc1nnc2n1-c1ccc(Cl)cc1C(c1ccccc1)=NC2` [Alprazolam], the “Pe (linear velocity of permeation)” value is on record as 5.44 10^−6 cm/s and the Papp at 18 h, 25 µg/mL is greater than 4 ×10⁻⁶ cm/s.

On to `COc1ccc(CCN2CCC(Nc3nc4ccccc4n3Cc3ccc(F)cc3)CC2)cc1` [Astemizole], for which the “Pe (linear velocity of permeation)” value is given as 10.66 10^−6 cm/s and the apparent permeability (Papp) at 18 h, 25 µg/mL was greater than 4 ×10⁻⁶ cm/s.

Consider `CN(C)CCCN1c2ccccc2Sc2ccc(Cl)cc21` [Chlorpromazine], for which the “Pe (linear velocity of permeation)” value was 6.36 10^−6 cm/s and the Papp at 18 h, 25 µg/mL was greater than 4 ×10⁻⁶ cm/s.

For the compound `CN1C(=O)CC(=O)N(c2ccccc2)c2cc(Cl)ccc21` [Clobazam], the “Pe (linear velocity of permeation)” value is 16.85 10^−6 cm/s and the apparent permeability (Papp) at 18 h, 25 µg/mL is greater than 4 ×10⁻⁶ cm/s.

For the compound `NCCc1ccc(O)c(O)c1` [Dopamine], the “Pe (linear velocity of permeation)” value is recorded as 0.16 10^−6 cm/s and the Papp at 18 h, 25 µg/mL is less than 2 ×10⁻⁶ cm/s.

Turning to `Cc1cc(NC(=O)C2=C(O)c3ccccc3S(=O)(=O)N2C)no1` [Isoxicam], the “Pe (linear velocity of permeation)” value is given as 0.25 10^−6 cm/s and the Papp at 18 h, 25 µg/mL was less than 2 ×10⁻⁶ cm/s.

Regarding `CN(C)C(=O)C(CCN1CCC(O)(c2ccc(Cl)cc2)CC1)(c1ccccc1)c1ccccc1` [Loperamide], the “Pe (linear velocity of permeation)” value is on record as 0.00 10^−6 cm/s and the apparent permeability (Papp) at 18 h, 25 µg/mL was less than 2 ×10⁻⁶ cm/s.

As for `CN1C(C(=O)Nc2ccccn2)=C(O)c2ccccc2S1(=O)=O` [Piroxicam], the “Pe (linear velocity of permeation)” value is 2.53 10^−6 cm/s and the Papp at 18 h, 25 µg/mL was less than 2 ×10⁻⁶ cm/s.

Turning to `CN(C)CCCN1c2ccccc2Sc2ccccc21` [Promazine], the “Pe (linear velocity of permeation)” value is reported as 8.84 10^−6 cm/s and the Papp at 18 h, 25 µg/mL is greater than 4 ×10⁻⁶ cm/s.

Regarding `CN1C(C(=O)Nc2ccccn2)=C(O)c2sccc2S1(=O)=O` [Tenoxicam], the “Pe (linear velocity of permeation)” value is on record as 0.14 10^−6 cm/s and the Papp at 18 h, 25 µg/mL is less than 2 ×10⁻⁶ cm/s.

Consider `CC(C)(C)c1ccc(C(O)CCCN2CCC(C(O)(c3ccccc3)c3ccccc3)CC2)cc1` (stereo not shown) [Terfenadine], for which the “Pe (linear velocity of permeation)” value is given as 0.00 10^−6 cm/s and the Papp at 18 h, 25 µg/mL is less than 2 ×10⁻⁶ cm/s.

Take `CCCC(C)C1(CC)C(=O)NC(=S)NC1=O` (stereo not shown) [Thiopental]: the apparent permeability coefficient (Papp) at 18 h, 25 µg/mL was greater than 4 ×10⁻⁶ cm/s.
